Laboratory results published in patent publication US7759326B2, “Aminophosphonic acid derivative, salt thereof, and modulator of S1P receptor” (Kyorin Pharmaceutical Co., Ltd., priority 2003, dated 2010).
Counter-ions that a name gives are not always drawn.

Tests used:
hS1P1 receptors = target: T1, hS1P1 receptors (Homo sapiens, UniProt P21453); assay: Intracellular Ca2+ mobilization in CHO cells expressing human S1P receptors (hS1P1); assay type: cell-based; settings: read-out: S1P1 (EC50 class, intracellular Ca2+ mobilization)
T1 construct: expressed in transfected cells; host or cells: CHO cells (Geneticin-selected)
T1 sequence (P21453 whole entry): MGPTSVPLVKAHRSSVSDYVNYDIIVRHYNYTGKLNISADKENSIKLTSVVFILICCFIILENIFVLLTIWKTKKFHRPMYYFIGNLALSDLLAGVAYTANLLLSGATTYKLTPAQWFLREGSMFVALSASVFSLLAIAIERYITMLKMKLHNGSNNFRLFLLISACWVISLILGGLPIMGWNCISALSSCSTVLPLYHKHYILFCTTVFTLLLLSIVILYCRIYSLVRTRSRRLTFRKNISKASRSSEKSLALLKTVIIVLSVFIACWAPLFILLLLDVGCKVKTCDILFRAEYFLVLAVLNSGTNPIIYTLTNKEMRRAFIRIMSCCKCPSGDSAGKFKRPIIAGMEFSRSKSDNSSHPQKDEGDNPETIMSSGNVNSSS
Description: (§1) Test for the Ability of Test Compounds to Induce Intracellular Ca^2+ Mobilization in Cells Expressing Human S1P (Sphingosine-1-Phosphate) Receptors
(§2) CHO cells expressing human S1P receptors (i.e., CHO cells expressing hS1P1 receptors or hS1P3 receptors) were subcultured on Ham's F-12 medium supplemented with 10% fetal bovine serum and 200 μg/mL Geneticin. The cells were seeded on a 96-well black clear bottom plate (COSTAR) at 4×10^4 cells/well and were cultured overnight at 37° C. in 5% CO2. A fluorescent reagent that emits fluorescence upon binding to Ca^2+ (Calcium Screening Kit (DOJINDO)) was added to the culture and the cells were further cultured for 60 min at 37° C. in 5% CO2. After culturing, microplate spectrofluorometer (FLEX station, MOLECULAR DEVICE) was used to measure the fluorescence intensity at an excitation wavelength of 485 nm and a detection wavelength of 525 nm. S1P or a test compound adjusted with cultural medium to a concentration 10 times higher than the final concentration (final DMSO concentration=0.1%). Each test compound solution was added 18 sec. after beginning of the measurement of fluorescence. The fluorescence intensity was measured every 1.5 sec for 100 sec. For each test compound, the difference between the maximum fluorescence intensity and the minimum fluorescence intensity (i.e., increase in fluorescence) was determined from the measurements. The rate of fluorescence increase (%) for each test compound was calculated by the difference (100%) of the fluorescence increase between solvent only and S1P (10^−6M). Using this value as an index of the ability of the test compound to induce intracellular Ca^2+ mobilization, EC50 was determined by PRISM software (GraphPad).

hS1P3 receptors = target: T2, hS1P3 receptors (Homo sapiens, UniProt Q99500); assay: Intracellular Ca2+ mobilization in CHO cells expressing human S1P receptors (hS1P3); assay type: cell-based; settings: read-out: S1P3 (EC50 class, intracellular Ca2+ mobilization)
T2 construct: expressed in transfected cells; host or cells: CHO cells (Geneticin-selected)
T2 sequence (Q99500 whole entry): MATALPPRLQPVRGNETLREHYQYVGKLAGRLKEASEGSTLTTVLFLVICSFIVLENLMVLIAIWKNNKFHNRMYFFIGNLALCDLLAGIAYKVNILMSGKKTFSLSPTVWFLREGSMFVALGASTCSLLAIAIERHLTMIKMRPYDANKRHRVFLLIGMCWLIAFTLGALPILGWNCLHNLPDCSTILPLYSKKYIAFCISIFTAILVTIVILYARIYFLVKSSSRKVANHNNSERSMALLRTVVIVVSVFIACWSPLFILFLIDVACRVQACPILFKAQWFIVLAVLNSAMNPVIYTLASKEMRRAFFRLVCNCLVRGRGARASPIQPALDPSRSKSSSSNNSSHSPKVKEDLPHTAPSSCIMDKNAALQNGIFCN
Description: as §1, §2

[1] = system: host vs. graft rejection in mice; assay: Inhibitory effects on host vs. graft rejection in mice (right popliteal lymph node weight); assay type: in vivo, C3H/HeN mice; settings: Mus musculus
Description: Inhibitory Effects of Test Compounds on Host Vs. Graft Rejection in Mice
This experiment was performed according to the method described in Transplantation 55(3) (1993): 578-591. Spleens were collected from 6 to 16 week old male BALB/c mice (CHARLES RIVER JAPAN). The spleens were placed in an RPMI-1640 medium (SIGMA) and were gently pressed between two slide glasses and then passed through a cell strainer (70 μm, Falcon) to form a cell suspension. The suspension was then centrifuged and the supernatant was discarded. An ammonium chloride-Tris isotonic buffer was added to the suspension to lyse erythrocytes. The cells were then centrifuged three times in RPMI-1640 medium for washing and were resuspended in an RPMI-1640 medium. To this suspension, mitomycin C (KYOWA HAKKO KOGYO Co., Ltd.) was added to a final concentration of 25 μg/mL and the suspension was incubated for 30 minutes at 37° C. in a 5% CO2 atmosphere. The cells were centrifuged three times in RPMI-1640 medium for washing and were resuspended in an RPMI-1640 medium so that the medium would contain 2.5×10^8 cells/mL. This suspension served as a “stimulation cell suspension.” Using a 27 G needle with a microsyringe (Hamilton), 20 μL (5×10^6 cells/mouse) of the stimulation cell suspension was subcutaneously injected into the right hind footpad of 6 to 8 week old male C3H/HeN mice (CLEA JAPAN). Normal control group was injected with RPMI-1640 medium alone. 4 days after the injection, right popliteal lymph nodes were collected and were weighed on a Mettler AT201 electronic scale (METTLER TOLEDO Co., Ltd.). Each animal was intraperitoneally administered a test compound once a day for four consecutive days starting on the day of the injection of the stimulation cells (i.e., total of 4 times). Control groups were administered the same vehicle as that used in the preparation of each test compound. The inhibition (%) was determined using the following formula {[Weight of right popliteal lymph nodes of positive control group]−[Weight of right popliteal lymph nodes of test compound group]×100}/{[Weight of right popliteal lymph nodes of positive control group]−[Weight of right popliteal lymph nodes of normal control group]} Formula 1

hS1P4 receptors = target: T3, hS1P4 receptors (Homo sapiens, UniProt O95977); assay: Activation of extracellular regulatory kinase (ERK) in CHO cells expressing hS1P4 receptors; assay type: cell-based
T3 construct: expressed in transfected cells; host or cells: CHO cells (Geneticin-selected)
T3 sequence (O95977 1-384): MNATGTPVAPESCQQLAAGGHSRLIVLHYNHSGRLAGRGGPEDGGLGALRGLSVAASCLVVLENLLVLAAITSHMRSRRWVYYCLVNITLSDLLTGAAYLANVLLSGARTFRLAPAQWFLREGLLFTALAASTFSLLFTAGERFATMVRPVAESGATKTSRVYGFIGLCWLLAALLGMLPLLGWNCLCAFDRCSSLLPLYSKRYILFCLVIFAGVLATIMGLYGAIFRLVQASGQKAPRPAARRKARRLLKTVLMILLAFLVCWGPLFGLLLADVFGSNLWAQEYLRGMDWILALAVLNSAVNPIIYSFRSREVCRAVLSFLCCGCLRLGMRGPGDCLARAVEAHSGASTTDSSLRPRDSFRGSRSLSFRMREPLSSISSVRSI
Description: Test for the Ability of Test Compounds to Induce Activation of Extracellular Regulatory Kinase (ERK) in Cells Expressing Human S1P Receptors
CHO cells expressing human S1P receptors (i.e., CHO cells expressing hS1P4 receptors) were subcultured on Ham's F-12 medium supplemented with 10% fetal bovine serum and 200 μg/mL Geneticin. The cells were seeded on a 6-well cell culture plate (COSTAR) at 3×10^5 cells/well and were cultured overnight at 37° C. in 5% CO2. On the following day, the medium was replaced with FBS-free Ham's F-12 medium (containing 0.1% fatty acid-free bovine serum albumin) and the cells were cultured overnight at 37° C. in 5% CO2. S1P or a test compound adjusted with Ham's F-12 medium (with 0.1% fatty acid-free bovine serum albumin) to a concentration 10 times higher than the final concentration (final DMSO concentration=0.1%). Each test compound solution was added to this culture plate. The cells were cultured for 5 min at 37° C. in 5% CO2. The medium was removed and the cells were washed with a 200 μmol/L ice-cold PBS containing Na3VO4. A lysis buffer (20 mmol/L Tris-HCl pH 7.5, 1% Triton X-100, 1 mmol/L EDTA, 1 mmol/L EGTA, 0.5 mmol/L Na3VO4, 0.1% β-mercaptoethanol, 50 mmol/L NaF, 5 mmol/L Na4O7P3, 10 mmol/L C3H7O6Na, 1 μmol/L Microcystin LR, 1× Complete Protease Inhibitor Cocktail (ROCHE)) was then added to the cells and the reaction was carried out on ice for 5 min to lyse the cells. The cell lysate was subjected to sodium dodecyl sulfate-polyacrylamide gel electrophoresis (SDS-PAGE) to separate proteins. The proteins were transferred to a PVDF membrane (Hybond-P, Amersham Biosciences). The membrane was reacted overnight at 4° C. with anti-phospho ERK (p42/44 MAPK) monoclonal antibody (E10, Cell Signaling Technologies) diluted 1000-fold, and was subsequently reacted for 1 hour at room temperature with alkaline phosphatase-labeled anti-mouse IgG antibody (Molecular Probe) diluted 6000-fold. After washing with 20 mmol/L Tris-HCl and 150 mmol/L NaCl solution, the PVDF membrane was fluorostained with DDAO phosphate (DyeChrome Western Blot Stain Kit, Molecular Probe), a fluorescent substrate of alkaline phosphatase. The fluorescence was detected using a variable image analyzer (Typhoon 8600, Amersham Biosciences). The detected signal of phosphorylated ERK was quantified using ImageQuant software (Molecular Dynamics). The rate of ERK activation (%) for each test compound was calculated by the difference (100%) of the signal intensity between solvent only and S1P (10^−6 mol/L).

EC50 (hS1P1 receptors) [nM]	EC50 (hS1P3 receptors) [nM]	SMILES	further results
< 10	< 10	CC(N)(CCCc1ccc(Sc2cccc(OCc3ccccc3)c2)cc1Cl)COP(=O)(O)O (single isomer, unassigned; (+)) [Example 239, (+)-2-amino-5-[4-(3-benzyloxyphenylthio)-2-chlorophenyl]-2-methylpentylphosphonate monoester]	inhibition in vivo at 0.03 mg/kg [1]: 65%
–	–	CCOP(=O)(C=CC(N)CCCc1ccc(Sc2cccc(OCc3ccccc3)c2)cc1Cl)OCC (stereo not drawn) [Example 233, Diethyl 3-amino-6-[4-(3-benzyloxyphenylthio)-2-chlorophenyl]-1-hexenylphosphonate hydrochloride]	inhibition in vivo at 30 mg/kg [1]: 53%
–	–	CCOP(=O)(CCC(N)CCCc1ccc(Sc2cccc(OCc3ccccc3)c2)cc1Cl)OCC (stereo not drawn) [Example 235, Diethyl 3-amino-6-[4-(3-benzyloxyphenylthio)-2-chlorophenyl]hexylphosphonate hydrochloride]	inhibition in vivo at 30 mg/kg [1]: 56%
10 to 100	10 to 100	NC(CO)(CCCc1ccc(Sc2cccc(OCc3ccccc3)c2)cc1Cl)COP(=O)(O)O (stereo not drawn) [Example 236, 2-amino-5-[4-(3-benzyloxyphenylthio)-2-chlorophenyl]-2-hydroxymethylpentylphosphonate monoester]	Induction effect of ERK activation on hS1P-expressing CHO cells (Activation rate (%) relative to the activated ERK at S1P10-6 mol/L) (hS1P4 receptors; Compound Conc. 1 nmol/L): 8.0%; Induction effect of ERK activation on hS1P-expressing CHO cells (Activation rate (%) relative to the activated ERK at S1P10-6 mol/L) (hS1P4 receptors; Compound Conc. 10 nmol/L): 119.5%; inhibition in vivo at 0.03 mg/kg [1]: 73%
< 10	< 10	NC(CO)(CCc1ccc(Sc2cccc(OCc3ccccc3)c2)cc1Cl)COP(=O)(O)O (stereo not drawn) [Example 237, 2-amino-4-[4-(3-benzyloxyphenylthio)-2-chlorophenyl]-2-hydroxymethylbutylphosphonate monoester]	Induction effect of ERK activation on hS1P-expressing CHO cells (Activation rate (%) relative to the activated ERK at S1P10-6 mol/L) (hS1P4 receptors; Compound Conc. 1 nmol/L): 35.8%; Induction effect of ERK activation on hS1P-expressing CHO cells (Activation rate (%) relative to the activated ERK at S1P10-6 mol/L) (hS1P4 receptors; Compound Conc. 10 nmol/L): 80.7%; inhibition in vivo at 0.1 mg/kg ([1]; Dose 0.1 mg/kg): 75%
100 to 1000	≥ 1000	NC(CO)(CCCc1ccc(Sc2cccc(O)c2)cc1Cl)COP(=O)(O)O (stereo not drawn) [Example 238, 2-amino-5-[2-chloro-4-(3-hydroxyphenylthio)phenyl]-2-hydroxymethylpentylphosphonate monoester]	inhibition in vivo at 3 mg/kg ([1]; Dose 3 mg/kg): 65%
100 to 1000	≥ 1000	NC(CCCc1ccc(Sc2cccc(OCc3ccccc3)c2)cc1Cl)CCP(=O)(O)O (stereo not drawn) [Example 241, 3-amino-6-[4-(3-benzyloxyphenylthio)-2-chlorophenyl]hexylphosphonic acid]	inhibition in vivo at 10 mg/kg [1]: 46%
100 to 1000	≥ 1000	NC(/C=C/P(=O)(O)O)CCCc1ccc(Sc2cccc(OCc3ccccc3)c2)cc1Cl (stereo not drawn) [Example 242, 3-amino-6-[4-(3-benzyloxyphenylthio)-2-chlorophenyl]-1-hexenylphosphonic acid]	inhibition in vivo at 10 mg/kg [1]: 62%
